What follows are molecules tested against T1, human TGR5 (Homo sapiens, UniProt Q8TDU6) (assay: Cell-based TGR5 assay (cAMP generation, HTRF)). Settings: HEK293 cells stably transfected with human TGR5; cAMP by HTRF; 30 minutes at 37° C.; read-out: pEC50 Human TGR5 (converted).
T1 construct: expressed in transfected cells; host or cells: HEK293
T1 sequence (Q8TDU6 1-330): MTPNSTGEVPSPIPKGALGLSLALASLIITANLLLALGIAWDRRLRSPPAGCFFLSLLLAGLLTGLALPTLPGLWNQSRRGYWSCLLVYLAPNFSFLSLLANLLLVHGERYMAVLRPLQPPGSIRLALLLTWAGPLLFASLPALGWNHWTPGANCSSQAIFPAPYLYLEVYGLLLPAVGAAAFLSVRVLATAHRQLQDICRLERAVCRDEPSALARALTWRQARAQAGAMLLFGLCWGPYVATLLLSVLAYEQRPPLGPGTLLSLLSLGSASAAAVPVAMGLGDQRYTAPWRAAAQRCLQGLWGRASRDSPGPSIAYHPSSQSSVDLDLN
Method in brief: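 First, compounds in 3-fold serial dilution were placed in HBSS with 10 mM HEPES pH 7.4 and 0.5 mM IBMX. Next, human TGR5-expressing HEK293 cells were added and incubated 30 min at 37° C. Finally, cAMP was detected by HTRF and pEC50 derived by logistic fitting.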

Compound	EC50 [nM]
O=C(CCCCCNS(=O)(=O)c1ccc(Cl)c(COC2(c3cnccc3-c3ccccc3OC3CC3)CC2)c1)NC[C@H](O)[C@@H](O)[C@H](O)[C@H](O)CO [Compound I-431, 6-[4-chloro-3-({1-[4-(2-cyclopropoxyphenyl)pyridin-3-yl]cyclopropoxy}methyl)benzenesulfonamido]-N-[(2S,3R,4R,5R)-2,3,4,5,6-pentahydroxyhexyl]hexanamide]	< 100
Clc1ccc(Cl)c(CNC2(c3cnccc3-c3ccccc3C3CC3)CC2)c1 [Compound I-10, 1-[4-(2-cyclopropylphenyl)pyridin-3-yl]-N-[(2,5-dichlorophenyl)methyl]cyclopropan-1-amine]	126 to 1000
CC(CCCCC(=O)N(C)C[C@H](O)[C@@H](O)[C@H](O)[C@H](O)CO)c1ccc(Cl)c(CNC2(c3cnccc3-c3ccccc3OC3CC3)CC2)c1 (stereo partly drawn) [Compound I-330, 6-{4-chloro-3-[({1-[4-(2-cyclopropoxyphenyl)pyridin-3-yl]cyclopropyl}amino)methyl]phenyl}-N-methyl-N-[(2S,3R,4R,5R)-2,3,4,5,6-pentahydroxyhexyl]heptanamide]	< 100
Clc1ccc(Cl)c(CNC2(c3cnccc3-c3ccccc3OC3CCOC3)CC2)c1 (stereo not drawn) [Compound I-21, N-[(2,5-dichlorophenyl)methyl]-1-{4-[2-(oxolan-3-yloxy)phenyl]pyridin-3-yl}cyclopropan-1-amine]	126 to 1000
CC(C)c1ccc(SCCCC(=O)N(C)C[C@H](O)[C@@H](O)[C@H](O)[C@H](O)CO)cc1COC1(c2cnccc2-c2ccccc2OC2CC2)CC1 [Compound I-620, 4-{[3-({1-[4-(2-cyclopropoxyphenyl)pyridin-3-yl]cyclopropoxy}methyl)-4-(propan-2-yl)phenyl]sulfanyl}-N-methyl-N-[(2S,3R,4R,5R)-2,3,4,5,6-pentahydroxyhexyl]butanamide]	1260 to 10000
COCCN(C[C@H](O)[C@@H](O)[C@H](O)[C@H](O)CO)C(=O)CCCC(C)c1ccc(C)c(CNC2(c3cnccc3-c3ccccc3OC3CC3)CC2)c1 (stereo partly drawn) [Compound I-357, 5-{3-[({1-[4-(2-cyclopropoxyphenyl)pyridin-3-yl]cyclopropyl}amino)methyl]-4-methylphenyl}-N-(2-methoxyethyl)-N-[(2S,3R,4R,5R)-2,3,4,5,6-pentahydroxyhexyl]hexanamide]	< 100
CN(C)C(=O)CCN(C[C@H](O)[C@@H](O)[C@H](O)[C@H](O)CO)C(=O)CCCSc1ccc(Cl)c(COC2(c3cnccc3-c3ccccc3OC3CC3)CC2)c1 [Compound I-671, 4-{[4-chloro-3-({1-[4-(2-cyclopropoxyphenyl)pyridin-3-yl]cyclopropoxy}methyl)phenyl]sulfanyl}-N-[2-(dimethylcarbamoyl)ethyl]-N-[(2S,3R,4R,5R)-2,3,4,5,6-pentahydroxyhexyl]butanamide]	126 to 1000
Cc1cc(COC2(c3cnccc3-c3ccccc3OC3CC3)CC2)c(Cl)cc1CCCCN(CCO)C(=O)NC[C@H](O)[C@@H](O)[C@H](O)[C@H](O)CO [Compound I-97, 1-(4-(5-chloro-4-((1-(4-(2-cyclopropoxyphenyl)pyridin-3-yl)cyclopropoxy)methyl)-2-methylphenyl)butyl)-1-(2-hydroxyethyl)-3-((2S,3R,4R,5R)-2,3,4,5,6-pentahydroxyhexyl)urea]	126 to 1000
CN(CCCNC[C@H](O)[C@@H](O)[C@H](O)[C@H](O)C(=O)O)C(=O)CCCCc1cc(Cl)c(COC2(c3cnccc3-c3ccccc3OC3CC3)CC2)cc1Cl [Compound I-180, (2S,3S,4R,5S)-6-[(3-{5-[2,5-dichloro-4-({1-[4-(2-cyclopropoxyphenyl)pyridin-3-yl]cyclopropoxy}methyl)phenyl]-N-methylpentanamido}propyl)amino]-2,3,4,5-tetrahydroxyhexanoic acid]	< 100
NCCOCCNS(=O)(=O)c1ccc(Cl)c(COC2(c3cnccc3-c3ccccc3OC3CC3)CC2)c1 [Compound I-399, N-[2-(2-aminoethoxy)ethyl]-4-chloro-3-({1-[4-(2-cyclopropoxyphenyl)pyridin-3-yl]cyclopropoxy}methyl)benzene-1-sulfonamide]	126 to 1000
Cc1ccc([C@H](C)CCCC(=O)N(CCS(C)(=O)=O)C[C@H](O)[C@@H](O)[C@H](O)[C@H](O)CO)cc1CNC1(c2cnccc2-c2ccccc2OC2CC2)CC1 (single isomer, unassigned) [Compound I-368]	< 100
NC(=O)CCN(C[C@H](O)[C@@H](O)[C@H](O)[C@H](O)CO)C(=O)CCCCc1cc(Cl)c(COC2(c3cnccc3-c3ccccc3OC3CC3)CC2)cc1Cl [Compound I-223, N-(2-carbamoylethyl)-5-[2,5-dichloro-4-({1-[4-(2-cyclopropoxyphenyl)pyridin-3-yl]cyclopropoxy}methyl)phenyl]-N-[(2S,3R,4R,5R)-2,3,4,5,6-pentahydroxyhexyl]pentanamide]	< 100
CC(CCCC(=O)N(CCC(=O)N(C)C)C[C@H](O)[C@@H](O)[C@H](O)[C@H](O)CO)c1ccc(Cl)c(CNC2(c3cnccc3-c3ccccc3OC3CC3)CC2)c1 (stereo partly drawn) [Compound I-345, 5-{4-chloro-3-[({1-[4-(2-cyclopropoxyphenyl)pyridin-3-yl]cyclopropyl}amino)methyl]phenyl}-N-[2-(dimethylcarbamoyl)ethyl]-N-[(2S,3R,4R,5R)-2,3,4,5,6-pentahydroxyhexyl]hexanamide]	126 to 1000
C[C@@H](O)CN(CCCCc1cc(Cl)c(COC2(c3cnccc3-c3ccccc3OC3CC3)CC2)cc1Cl)C(=O)[C@@H](O)[C@@H](O)[C@H](O)[C@@H](O)CO [Compound I-214, (2S,3S,4R,5S)-N-{4-[2,5-dichloro-4-({1-[4-(2-cyclopropoxyphenyl)pyridin-3-yl]cyclopropoxy}methyl)phenyl]butyl}-2,3,4,5,6-pentahydroxy-N-[(2R)-2-hydroxypropyl]hexanamide]	< 100
Cc1ccc(SCCCCN(CCOCCO)C(=O)[C@@H](O)[C@@H](O)[C@H](O)[C@@H](O)CO)cc1COC1(c2cnccc2-c2ccccc2OC2CC2)CC1 [Compound I-551, (2S,3S,4R,5S)-N-(4-{[3-({1-[4-(2-cyclopropoxyphenyl)pyridin-3-yl]cyclopropoxy}methyl)-4-methylphenyl]sulfanyl}butyl)-2,3,4,5,6-pentahydroxy-N-[2-(2-hydroxyethoxy)ethyl]hexanamide]	126 to 1000
CC(C)CN(CCCCNC(=O)NC[C@H](O)[C@@H](O)[C@H](O)[C@H](O)CO)S(=O)(=O)c1ccc(Cl)c(COC2(c3cnccc3-c3ccccc3OC3CC3)CC2)c1 [Compound I-762, 4-chloro-3-((1-(4-(2-cyclopropoxyphenyl)pyridin-3-yl)cyclopropoxy)methyl)-N-isobutyl-N-(4-(3-((2S,3R,4R,5R)-2,3,4,5,6-pentahydroxyhexyl)ureido)butyl)benzenesulfonamide]	< 100
CC(CCCN(CCN1CCNC1=O)C(=O)[C@@H](O)[C@@H](O)[C@H](O)[C@@H](O)CO)c1ccc(Cl)c(CNC2(c3cnccc3-c3ccccc3OC3CC3)CC2)c1 (stereo partly drawn) [Compound I-277, (2S,3S,4R,5S)-N-(4-{4-chloro-3-[({1-[4-(2-cyclopropoxyphenyl)pyridin-3-yl]cyclopropyl}amino)methyl]phenyl}pentyl)-2,3,4,5,6-pentahydroxy-N-[2-(2-oxoimidazolidin-1-yl)ethyl]hexanamide]	126 to 1000
COCCCN(C[C@H](O)[C@@H](O)[C@H](O)[C@H](O)CO)C(=O)CCCCc1cc(Cl)c(COC2(c3cnccc3-c3ccccc3OC3CC3)CC2)cc1Cl [Compound I-220, 5-[2,5-dichloro-4-({1-[4-(2-cyclopropoxyphenyl)pyridin-3-yl]cyclopropoxy}methyl)phenyl]-N-(3-methoxypropyl)-N-[(2S,3R,4R,5R)-2,3,4,5,6-pentahydroxyhexyl]pentanamide]	126 to 1000
CS(=O)(=O)CCCN(CCCSc1ccc(Cl)c(COC2(c3cnccc3-c3ccccc3OC3CC3)CC2)c1)C(=O)[C@@H](O)[C@@H](O)[C@H](O)[C@@H](O)CO [Compound I-558, (2S,3S,4R,5S)-N-(3-{[4-chloro-3-({1-[4-(2-cyclopropoxyphenyl)pyridin-3-yl]cyclopropoxy}methyl)phenyl]sulfanyl}propyl)-2,3,4,5,6-pentahydroxy-N-(3-methanesulfonylpropyl) hexanamide]	126 to 1000
O=C(CCCCc1cc(Cl)c(COC2(c3cnccc3-c3ccccc3OC3CC3)CC2)cc1Cl)N[C@@H](CN1CCOCC1)[C@@H](O)[C@H](O)[C@H](O)CO (stereo in doubt) [Compound I-160, 5-[2,5-dichloro-4-({1-[4-(2-cyclopropoxyphenyl)pyridin-3-yl]cyclopropoxy}methyl)phenyl]-N-[(2S,3R,4S,5R)-3,4,5,6-tetrahydroxy-1-(morpholin-4-yl)hexan-2-yl]pentanamide]	< 100
O=C([C@@H](O)[C@@H](O)[C@H](O)[C@@H](O)CO)N(CCCSc1ccc(Cl)c(CNC2(c3cnccc3-c3ccccc3OC3CC3)CC2)c1)CCN1CCS(=O)(=O)CC1 [Compound I-530, (2S,3S,4R,5S)-N-[3-({4-chloro-3-[({1-[4-(2-cyclopropoxyphenyl)pyridin-3-yl]cyclopropyl)amino)methyl]phenyl}sulfanyl)propyl]-N-[2-(1,1-dioxo-1λ^6,4-thiomorpholin-4-yl)ethyl]-2,3,4,5,6-pentahydroxyhexanamide]	126 to 1000

Reference: patent publication US12084472B2 (Ardelyx, Inc., priority 2015, dated 2024)
